Test results published in publication PMC4575644 (ACS chemical biology, 2015).

Columns and labels:
Type in all cases: cell-based
[1] = molecular target: T1, N-acylethanolamine acid amidase (hNAAA) (Homo sapiens, UniProt Q02083); test: competitive ABPP against probe […] in intact NAAA-HEK293 cells
T1 sequence (Q02083 29-125): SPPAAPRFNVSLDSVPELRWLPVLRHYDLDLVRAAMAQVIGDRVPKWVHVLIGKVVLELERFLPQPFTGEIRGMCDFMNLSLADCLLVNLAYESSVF
T1 sequence (Q02083 126-359): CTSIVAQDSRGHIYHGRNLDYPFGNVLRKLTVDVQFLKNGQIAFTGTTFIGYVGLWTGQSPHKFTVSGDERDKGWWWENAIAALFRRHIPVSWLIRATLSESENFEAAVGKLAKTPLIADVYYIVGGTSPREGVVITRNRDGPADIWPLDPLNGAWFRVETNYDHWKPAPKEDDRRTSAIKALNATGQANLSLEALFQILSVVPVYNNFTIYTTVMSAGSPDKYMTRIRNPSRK

acid ceramidase (AC) = molecular target: T2, acid ceramidase (AC) (Rattus norvegicus, UniProt Q6P7S1); test: enzyme inhibition IC50
T2 sequence (Q6P7S1 21-141): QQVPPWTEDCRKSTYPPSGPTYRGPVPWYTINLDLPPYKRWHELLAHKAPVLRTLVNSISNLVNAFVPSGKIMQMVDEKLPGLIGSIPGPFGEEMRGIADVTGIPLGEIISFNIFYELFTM
T2 sequence (Q6P7S1 142-394): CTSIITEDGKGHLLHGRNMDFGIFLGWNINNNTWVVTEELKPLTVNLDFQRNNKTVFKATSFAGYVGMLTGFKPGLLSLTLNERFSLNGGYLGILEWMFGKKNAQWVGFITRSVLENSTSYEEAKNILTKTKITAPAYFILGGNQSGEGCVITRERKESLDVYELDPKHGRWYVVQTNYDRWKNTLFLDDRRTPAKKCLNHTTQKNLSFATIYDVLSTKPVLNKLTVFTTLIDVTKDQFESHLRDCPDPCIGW

[2] = molecular target: T3, N-acylethanolamine acid amidase (rNAAA) (Rattus norvegicus, UniProt Q5KTC7); test: enzyme inhibition IC50
T3 sequence (Q5KTC7 34-130): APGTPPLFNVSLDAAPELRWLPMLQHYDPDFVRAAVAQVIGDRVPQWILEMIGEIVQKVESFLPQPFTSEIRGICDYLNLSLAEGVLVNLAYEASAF
T3 sequence (Q5KTC7 131-362): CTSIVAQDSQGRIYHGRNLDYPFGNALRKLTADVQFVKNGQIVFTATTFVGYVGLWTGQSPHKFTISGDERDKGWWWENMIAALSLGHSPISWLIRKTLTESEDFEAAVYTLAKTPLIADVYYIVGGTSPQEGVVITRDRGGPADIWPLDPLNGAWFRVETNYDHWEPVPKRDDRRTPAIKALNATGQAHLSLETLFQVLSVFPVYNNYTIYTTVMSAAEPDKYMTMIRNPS

SMILES | competitive ABPP against probe 1 in intact NAAA-HEK293 cells (40 μM) [1] | IC50 (acid ceramidase (AC)) | IC50 [2]
C[C@@H]1OC(=O)[C@@H]1NC(=O)OCCCCCc1ccccc1 [ARN077, 5-phenylpentyl N-[(2S,3R)-2-methyl-4-oxo-oxetan-3-yl]carbamate] | In either case, a decrease in signal intensity was observed, but a more pronounced masking of NAAA was noted | – | –
C#CCCCCCCCCCOC(=O)N[C@H]1CNC1=O [compound 1, undec-10-ynyl N-[(3S)-2-oxoazetidin-3-yl]carbamate] | – | 1200 nM | 13 nM
